Patent publication US8293764B2, “Compositions and methods for disruption of BRCA2-Rad51 interaction” (The Regents of the University of California, priority 2004, dated 2012)
Entries after “also recorded” stand apart in the source; their conditions may differ.

What was measured:
Rad51-BRC repeat complex = molecular target: T1, Rad51-BRC repeat complex (Homo sapiens, UniProt Q06609); assay: SPR solution competition assay; assay type: binding; conditions: SPR solution competition format; read-out: median inhibitory concentration (IC50), displacement of BRC repeat from complex with Rad51
T1 sequence (Q06609 1-339): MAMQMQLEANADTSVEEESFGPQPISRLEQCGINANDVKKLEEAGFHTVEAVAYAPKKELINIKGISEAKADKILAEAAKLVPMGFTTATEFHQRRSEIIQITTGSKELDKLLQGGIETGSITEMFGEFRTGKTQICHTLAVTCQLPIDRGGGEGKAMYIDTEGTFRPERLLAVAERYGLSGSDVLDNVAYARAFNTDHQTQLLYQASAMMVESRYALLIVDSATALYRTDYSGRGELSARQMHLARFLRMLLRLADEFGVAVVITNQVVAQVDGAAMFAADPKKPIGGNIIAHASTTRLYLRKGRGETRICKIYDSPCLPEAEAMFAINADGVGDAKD
Text: If the IBR compound indeed occupies the hydrophobic pocket for the entrance of Phe1524 in BRCA2, the oligomerization of Rad51 should also be affected since they share the same binding region. […] Therefore, if IBR2 mimics the BRC hairpin structure, the Rad51 multimerization will also be inhibited by IBR2. We compared the gel filtration profile of Rad51 between with and without IBR2. […] The inhibition of the Rad51 and BRC repeat binding was further analyzed by SPR technology in a solution competition format as previously described (see e.g., Science 303, 844-848).
Surface Plasmon Resonance binding assays: The assays were performed at 25° C. in HBSD buffer (10 mM HEPES, 150 mM NaCl, 0.1% DMSO) on Biacore3000 (Biacore Inc.). Sensor chips NTA or glutathione-modified CM5 were used to capture His-Rad51 or GST-BRC1, respectively. The capture level was about 130 resonance units at a flow rate of 5 μl/min. For sequential binding assays, chips were treated with compounds (1 μM) and then proteins (50 μg/ml). The retained resonance units (RU) were recorded and averaged from triplicate experiments. For competition assays (Vassilev et al., 2004), IBR2 was incubated with 50 μg/ml BRC at 25° C. for 15 minutes prior to use. Relative binding percentages were calculated with respect to the binding without IBR2 and averaged from two independent experiments.

[1] = test system: breast cancer cell lines (MDA-MB-231, MCF-7, MDA-MB-468, SKBR3 and MDA-MB-435); assay: Cell growth curves, trypan blue exclusion assay; assay type: cell-based; conditions: 0, 5, 10, 20 μM; 1-5 days
Procedure: The inventors examined the effects of IBR2 on the growth and viability of a panel of breast cancer cell lines. Five exponentially growing breast cancer cell lines (MDA-MB-231, MCF-7, MDA-MB-468, SKBR3 and MDA-MB-435) were incubated with IBR2 at various concentrations (0, 5, 10 and 20 μM) for various periods of time (1, 2, 3, 4 and 5 days). The viable cell numbers were then counted by trypan blue exclusion assay. […] We also examined the effects of IBR2 on the growth and viability of cultured breast cancer cells (MDA-MB-468, MDA-MB-435, MCF-7, T47D) using the 3-(4,5-dimethylthiazol-2-yl)-2,5-diphenyltetrazolium bromide (MTT) assay.
Cell proliferation assay and clonogenic survival assays: To obtain cell growth curves, 1×10^4 cells were seeded in 12-well plate for 24 hours. Cells were then treated, in duplicate, with various concentrations of IBR2 in the presence of 0.4% DMSO. The viable cells were counted by trypan blue exclusion assay daily. MTT assay was performed as previously described (Alley et al., 1988).

[2] = test system: human breast cancer xenograft (MDA-MB-468); assay: Tumor inhibition assay in nude mice; assay type: in vivo
Procedure: To test the inhibitory effect of IBR2 on the growth of established tumor xenografts in nude mice, we chose the human breast cancer cell line MDA-MB-468 for this study. Mice with tumor size of approximately 85 mm3 were treated with three doses of IBR2 (10, 50 and 150 mg/kg i.p.) every other day for up to five weeks.
Tumor inhibition assay in nude mice: 5×10^6 MDA-MB-468 cells in 100 μl of PBS were injected into mammary fat pad of 6-8 week old athymic female BALB/c-nude mice (nu/nu) (Charles River Laboratories). After tumors grew to 85 mm^3 (day 12), mice were randomized into four groups (n=5 per group) to receive intraperitoneal injection of IBR2 (10, 50, or 150 mg/kg) or vehicle (15% DMSO, 20% Tween 20, 10% PEG400, 55% saline) every other day for 5 weeks. Body weights of mice and tumor volumes were measured twice weekly during the course of drug treatment. A Student's t test was used to determine P value.

MCF-7 cells = assay: S phase entry (BrdU) after nocodazole synchronization; assay type: cell-based; conditions: cells synchronized at M phase by nocodazole, re-plated
Procedure: To test whether IBR2 treated cells are arrested at G1 and thus fail to enter S phase, MCF-7 cells were synchronized at M phase by nocodazole treatment and then re-plated to allow the entry to G1 phase. At different time points, cells were pulse labeled with BrdU to monitor S phase entry.
Cell culture, cell synchronization, BrdU labeling and determination of mitotic index: Breast cancer cell lines and MEF cell lines were cultured in high-glucose Dulbecco modified Eagle medium containing 10% fetal bovine serum. MCF-10A cells were cultured as described previously (Debnath et al., 2003). Cell synchronization at M phase was achieved by treatment with 0.1 μg/ml nocodazole for 8 hours. Cell synchronization at G1/S boundary was achieved by treatment with 1 mM hydroxyurea for 17 hours, 9 hours of release and again with 1 mM hydroxyurea for 14 hours. For BrdU labeling, cells were incubated with BrdU for 30 minutes and fixed for BrdU immunostaining using a BrdU labeling kit (Amersham Biosciences). For determination of mitotic index, cells were fixed in 4% formaldehyde in PBS containing 0.1 μg/ml DAPI for 30 minutes at room temperature and examined by fluorescence microscopy. 500-1000 nuclei per sample were counted to determine the number of M phase cells which only includes prometaphase, metaphase, anaphase and telophase.

[3] = test system: BRCA2-/-:p53-/-, BRCA1-/-:p53-/- and p53-/- MEFs; assay: Sensitivity of isogenic MEFs to IBR2; assay type: cell-based; conditions: compared with BRCA1-/-:p53-/- and p53-/- MEFs
Text: Next, the inventors examined the sensitivity to IBR2 treatment of isogenic MEFs with genotypes of BRCA2−/−:p53−/−, BRCA1−/−:p53−/− and p53−/−.

O=S(=O)(Cc1ccccc1)N1C=Cc2ccccc2C1c1c[nH]c2ccccc12 (centres unmarked) [IBR2, 2-(benzylsulfonyl)-1-(1H-indol-3-yl)-1,2-dihydroisoquinoline]
IC50 (Rad51-BRC repeat complex): ~115 nM
growth of breast cancer cell lines (viable cell numbers) [1]: retarded growth of breast tumor cells in culture; also recorded: significantly inhibited the growth
average body weights of nude mice ([2]; 10, 50 and 150 mg/kg i.p.): remained almost constant
toxicity to animals ([2]; 10, 50 and 150 mg/kg i.p.): without apparent toxicity to animals
retardation of tumor growth ([2]; 10, 50 and 150 mg/kg i.p. every other day up to five weeks, vs vehicle): up to 65%
tumorigenicity in nude mice ([2]; mouse, in vivo): significantly reduced tumorigenicity in nude mice
S phase entry (BrdU positive cells) (MCF-7 cells): completely arrested at G1 and failed to enter S phase
sensitivity of BRCA2-/-:p53-/- MEFs to IBR2 [3]: most sensitive
